Common to all, as to format: in vivo
In experiment [1] the test system is radish "Cherry Bell" Raphanus sativus L. As to the kind of experiment: Greenhouse foliar treatment of radish, root dry weight. On the procedure:
Plant responses to formulations of an alkyl-α-D-mannopyranose and an electron donating-aryl-α-D-mannopyranose were consistent with preferred binding tendencies to displace glucose from storage. Plants were maintained in automated greenhouses controlled for temperature, light and circulation. Environmental conditions during the course of the studies averaged 13:11 hour L:D photoperiod, 25°:20° C. day:night and 20% to 80% relative humidity. Sunlight was supplemented with electrical illumination to achieve photosynthetically active radiation levels ranging from 350 to 600 μmol photons·m^−2·s^−1 at the level of the phylloplane. Solutions for treated and control plants were applied within an hour, otherwise subjecting all plants to identical conditions consistent with good laboratory practices. Solutions applied to controls included nutrients and surfactants identical to the treatment solution, but without the active compound. General supplementation of foliar formulations included the following: 10-100 mM ammonium salt; 1-6 ppm manganese, Mn-EDTA; and 5-10 ppm calcium, Ca-EDTA. For example, foliar solutions of 0.3 mM p-aminophenylmannopyranoside, hereafter referred to as APM, were supplemented with 23 mM ammonium sulfate, (NH4)2SO4, 3 ppm Mn and 6 ppm Ca; and Nutrient Control contained 23 mM (NH4)2SO4, 3 ppm Mn and 6 ppm Ca. The foliar concentrations of Mn and Ca were higher than those specified previously because of the low volumes of foliar applications relative to hydroponic root immersion volumes, and they were particularly effective in combination with foliar applications of compounds because they supported high rates of productivity in the treated plants without phytotoxicity. Compounds for experimentation included the following: methyl-α-D-mannopyranoside (MeM), APM, and methyl-α-D-glucopyranoside (MeG). All foliar solutions were formulated with 1 gm/liter surfactant blend consisting of 0.5 gram DowCorning Q5211 dispersed into 1.5 grams BASF Pluronic L62. As a matter of course, untreated controls that foliar nutrients and wetting agents were not introducing artifacts. The standard volume for foliar application of experimental treatments was 200 liters/hectare. Identical volumes of foliar spray per tray of plant cultures were applied mechanically in a single pass. Controls were placed in the same location and given identical irrigation and handling as the treated plants. To compare the effects of treatments under tightly controlled conditions, plants were cultured, harvested, cleaned and weighed as per previously described methods. Treated plants were statistically analyzed in comparisons against controls. Each survey population held sufficient replicate sample numbers to make meaningful statistical analyses utilizing SPSS® software. Significance was determined at the 95% confidence interval (CI) of the difference. Counts of population numbers are denoted as “n” values. For experiments, radish “Cherry Bell” Raphanus sativus L., a root crop was planted and treated. […] Therefore, least concentrations were selected for statistical experimentation; and 200 l/ha foliar 1 mM MeM or 0.3 mM APM in nutrient-supplemented formulations were applied to 5 cm tall sprouts; while, Nutrient Controls were given foliar applications of identical solutions without the α-D-glycopyranosides; and no foliar solutions were applied to untreated controls which were otherwise identically cultivated and irrigated. For our quantification experiments, when improvements of root productivity over those of nutrient controls were visibly discernible 12 d after treatment, all populations of controls and treatments were harvested, and individual dry weights of treatment and control populations were analyzed.

In experiment [2] the test system is radish (Raphanus sativus L., cultivar "Cherry Bell"). As to the kind of experiment: Radish seed germination and seedling growth, nutrient omission media. Particulars: glycoside alone, no divalent cations. On the procedure: Treatment of seeds and seedlings by aqueous solutions is exemplified by mannosides supplemented with soluble divalent cations in complete mannosides formulations. […] Benefits of such exemplary seed priming methods are as follows: Germination and early growth of radish (Raphanus sativus L., cultivar “Cherry Bell”) and Swiss Chard (Beta vulgaris subspecies cicla L., cultivar “Fordhook® Giant”) were tested for response to α-mannosides supplemented with Ca^2+ and/or Mn^2+. Rapid assays of radish seed germination and growth used hydroponic cultures with no solid medium; longer experiments with Swiss Chard used a 2-5 mm substratum of 700 μm diameter glass microbeads. Neutralization of glass microbeads may be undertaken with dilute mildly acidic solution titrated to pH 6; for example, with mineral acids such as hydrochloric acid, sulfuric acid, nitric acid, and the like; organic acids such as uronic, citric, malic, lactic, salicylic, ascorbic, succinic, oxaloacetic, ketoglutaric, fumaric acids, and amino acids, and the like; artificial biological buffering agents such as TRIS, BIS TRIS, MES, MOPS, HEPES, and the like; fertilizers; and most preferably, phosphates; and the most highly preferred compounds are combinations of compounds in a pH 6-buffer that provide major nutrients for plants, such as MAP with DKP or DAP with MKP; and the like. When test medium was added, the glass microbeads formed an even layer, drawing liquid to the surface by capillary action. Seeds were examined to exclude aberrantly large, small, or damaged seeds, and were placed on the surface of the substratum. For experiments using post-germination seedlings, seeds were germinated in deionized water prior to exposure to nutrient media. A seed with an emerged radicle >1 mm was recorded as germinated, and germinated seeds were counted daily, until 95% germination. There was no visible evidence of either desiccation or waterlogging effects. Glass microbeads were removed by immersion and agitation in water, or manually with fine forceps. Harvested plants were oven-dried to determine dry weight. Treatment and control solutions were prepared by dissolving nutrients in deionized ultrapure water.
Growth media were based on omission or inclusion of glycosides and targeted divalent cations. Triose is the abbreviation for α-1,3-α-1,6 mannotriose) and MEM is methyl-α-D-mannoside. Terminology used herein indicates the omission or inclusion of nutrients: 000=control medium with no glycoside, Ca^2+ or Mn^2+; MeMOO=medium with MeM, but no Ca^2+ or Mn^2+; MeMCaO=medium with MeM and Ca^2+, but no Mn^2+, OCaMn=medium with no MeM, but with Ca^2++Mn^2+; and so on. Similar terminology is used for media containing triose. Results cited are means±SE. […]

Another experiment deals with Radish seedlings. As to the kind of experiment: Radish seedling assay, immersion in nutrient solution with α-mannosides. On the procedure: Plants were cultured in research facilities and consistency of response to treatments was achieved by supplementation with chelated calcium and manganese. All plants were regularly given modified Hoagland water-culture nutrients. […] Controls were placed in the same location and all plants were given the same irrigation, fertilizers, and handling, but without the experimental compounds. Plants were matched to controls and treated within a week of emergence of cotyledon and true leaves. The performance of compounds was evaluated by comparing means of individual dry weights of shoots and roots. Statistics applied two-tailed Student's t-test with p-values significant within 95% confidence intervals. Counts of populations are “n” values and standard error is denoted “±SE.” Specialty chemicals included the following: tetramethyl-β-D-glucoside (TMG); tetraacetyl-D-glucopyranose (TAG); pentaacetyl-α-D-mannopyranose (MP); p-amino-phenyl-α-D-mannoside (APM); methyl-α-D-mannoside (MeM) and methylglucoside (MeG). MPG was synthesized. 2,3,4,6-tetra-O-acetyl-D-mannopyranose (αβ) was utilized. As required, MP and APM were dissolved in a lower aliphatic alcohol prior to dilution in aqueous media.
Assay—Radish seedlings were treated with α-mannosides after emergence of radicles. Seedlings were matched and transferred to Nutrient Control or treatment solutions. Assays were maintained under environmental conditions as follow: Photosynthetically active radiation 100 μEin·m^−2·sec^−1, diel cycle of 16:8 h light:dark, 26:26° C.

The test system of experiment [3] is Swiss Chard (Beta vulgaris subspecies cicla L., cultivar "Fordhook Giant"). Nature of the experiment: Swiss Chard germination and seedling growth on glass microbead substratum. The following applies: media containing 100 μM MeM. As for the experimental part: Treatment of seeds and seedlings by aqueous solutions is exemplified by mannosides supplemented with soluble divalent cations in complete mannosides formulations. […] Benefits of such exemplary seed priming methods are as follows: Germination and early growth of radish (Raphanus sativus L., cultivar “Cherry Bell”) and Swiss Chard (Beta vulgaris subspecies cicla L., cultivar “Fordhook® Giant”) were tested for response to α-mannosides supplemented with Ca^2+ and/or Mn^2+. Rapid assays of radish seed germination and growth used hydroponic cultures with no solid medium; longer experiments with Swiss Chard used a 2-5 mm substratum of 700 μm diameter glass microbeads. […] A seed with an emerged radicle >1 mm was recorded as germinated, and germinated seeds were counted daily, until 95% germination. […]

The next experiment concerns paperwhite narcissus. Nature of the experiment: Paperwhite narcissus bulbs cultured in 700 μm silicate beads, root treatment. Particulars: 16 days after treatment; n=6; p=0.01; controls 30 cc. On the procedure:
Plants were cultivated under controlled environmental conditions as follow: GE Ecolux® plant and aquarium F40T12 fluorescent illumination, photosynthetically active radiation (PAR) of 100 μEin·m^−2·s^−1, diel cycle of 16:8 h light:dark, 28:26° C., 10% to 20% relative humidity. Indoxyl glycopyranoside (IG) was formulated in water and applied and controls were given equal volumes of water without IG. […] Clear plastic 500 cc containers, perforated for drainage, were filled to a depth of 10 cm with up to 900 grams of microbeads each. Initially, basal plates of bulbs were immersed 1 cm into moistened 700 μm nmd silicate beads to initiate rooting. Within a week, first roots emerged and each bulb was treated with 0.1 ml of aqueous 10 mM IG. Controls were treated with addition of 0.1 ml water to their media. After 8 h uptake of the treatments, fertigation resumed in a manner consistent with pH-control. In another case, 0.3 mM 4-amino-phenyl-α-D-mannopyranoside (APM) was dissolved in water with 3 ppm Mn as EDTA, 6 ppm Ca as EDTA. A solution of the formulation was applied to rooted Crocus. APM-treated plants were compared to plants given identical control formulation without APM. […]
[…] For paperwhites, volumes of entire roots were measured by displacement of water in glass beakers. […]

The next experiment concerns corn. As to the kind of experiment: Corn cultured in 700 μm silicate beads, root treatment. Particulars: 1 mM IG. On the procedure: Individual plants were started from seeds, bulbs, or vegetative clones, inserted into containers of pre-moistened microbeads. Seedlings included ryegrass and corn; bulbs were of Crocus and paperwhite narcissus; and vegetative cuttings were from Coleus. Seeds generally germinated and were selected according to day of emergence of first roots as control and treatment sets. Roots were treated thereafter.
Plants were cultivated under controlled environmental conditions as follow: GE Ecolux® plant and aquarium F40T12 fluorescent illumination, photosynthetically active radiation (PAR) of 100 μEin·m^−2·s^−1, diel cycle of 16:8 h light:dark, 28:26° C., 10% to 20% relative humidity. Indoxyl glycopyranoside (IG) was formulated in water and applied and controls were given equal volumes of water without IG. […] Clear plastic 500 cc containers, perforated for drainage, were filled to a depth of 10 cm with up to 900 grams of microbeads each. Initially, basal plates of bulbs were immersed 1 cm into moistened 700 μm nmd silicate beads to initiate rooting. Within a week, first roots emerged and each bulb was treated with 0.1 ml of aqueous 10 mM IG. Controls were treated with addition of 0.1 ml water to their media. After 8 h uptake of the treatments, fertigation resumed in a manner consistent with pH-control. In another case, 0.3 mM 4-amino-phenyl-α-D-mannopyranoside (APM) was dissolved in water with 3 ppm Mn as EDTA, 6 ppm Ca as EDTA. A solution of the formulation was applied to rooted Crocus. APM-treated plants were compared to plants given identical control formulation without APM. Within five hours of treatment and, through fertigation, thereafter, all container cultures were regularly given equal volumes of nutribead solution. Controls were placed side-by-side and cultivated, likewise.
For all experiments, at 7 d to 14 d after treatment, microbeads were saturated with water. Immediately, individual plants gently were pulled and lifted out of the water-saturated silicate microbeads by hand. […] For paperwhites, volumes of entire roots were measured by displacement of water in glass beakers. […]

Where “and” joins values, the source holds several entries; their conditions need not be identical. Identical values can stand only once.

In the case of `CO[C@H]1O[C@H](CO)[C@@H](O)[C@H](O)[C@@H]1O` [MeM, methyl-α-D-mannopyranoside], in experiment [1] (foliar 1 mM with nutrients), the “root mean dry weight over the Nutrient Control” value was “highly significant (n=72; p=0.001) increase”. Further, the “root weight increase over controls” value in experiment [1] (foliar 1 mM, 200 l/ha, harvest 12 d after treatment, n=72, p=0.001) was 30%. For the same compound, the “active concentration applied for growth response” value in experiment [1] (foliar, radish) turned out to be 1 mM. In addition, in experiment [2], the “effect on plant growth / seedling yields without Ca2+ and Mn2+” value was “no significant effect”. Besides, the “enhancement of mean dry weight over Nutrient Control” value in the experiment with Radish seedlings (25 μM, 48 h) is 12% and ~11%; in the experiment on Radish seedlings (50 μM, 48 h), 11%; with Radish seedlings (500 μM, 48 h), 11%. In addition, the “mean dry weight of whole plants” value with Radish seedlings (25 μM, 48 h) was 10 mg; with Radish seedlings (50 μM, 48 h) it was 11 mg; in the experiment on Radish seedlings (100 μM, 48 h) it was 10.9 mg; with Radish seedlings (500 μM, 48 h), 10.3 mg. Moreover, the “visual comparison with Nutrient Control” value with Radish seedlings (500 μM, 24 h) is “enhanced pigmentation and general growth”. Also, the “growth response compared to Nutrient Control (visual)” value in the experiment on Radish seedlings (48 h, 1 mM TAM, 100 μM MP, 25 μM to 500 μM MeM, 10 μM APM) is given as “advanced growth responses”. In experiment [3], the “germination rates compared with media without the glycoside” value is reported as “consistently higher”.

In turn, Indoxyl glycopyranoside [IG] returned a mean root volume in the experiment on paperwhite narcissus of 37 cc per plant. The same compound gave a taproot total length in the experiment with corn (after a week, control 5 cm) of 7 cm. The “dry weight of entire plant” value in the experiment on corn (control plant 0.2 g) came out at 0.3 g. Also, the “dry weight of separated roots” value in the experiment on corn (control roots 0.03 g) amounted to 0.04 g.
